Experimental data taken from patent publication US9057055B2, “Method of obtaining circulating cancer cell populations” (THE ROYAL INSTITUTION FOR THE ADVANCEMENT OF …, priority 2012, dated 2015).
pIC50: −log10 of the molar value.

Tested on: CCC cells from a breast cancer patient (ER+, PR−, HER2 (2+))
Assay: Drug-sensitivity assay of cultured CCCs (Presto Blue cell growth/viability)
Assay type: cell-based, human
Settings: cultured CCCs grown in MammoCult media, 10 000 cells per well, 48 hours incubation, Presto Blue fluorescence vs vehicle-treated cells (FIG. 13)
Description: One or more frozen aliquot of RoboSep™ CD45-negative cell population (described in Example I and containing about 5×10^6 nucleated cells and about 1 000 to 3 000 CTCs based on Epimet™-positive staining) is cultured in the conditions described in Example II until approximately 600 000 cells are obtained (usually after 6 subculture steps). This amount of cells is sufficient for testing four distinct compounds in triplicate at four different concentrations using a plating density of approximately 5 000 to 10 000 cells/well in 96-well plates. Cells are plated onto ultra-low attachment microtiter plates at 5 000 to 10 000 cells/well in 125 μL of fresh MammoCult™ media in triplicates. Experimental and control samples (no cells added) are incubated for 24 hours at 37° C. and 5% CO2. […] Fluorescence intensity (FI) is determined using a spectrofluorometer (excitation: 530-560 nm; emission: 590 nm). Dose response curves are calculated as a percentage of untreated controls (FI590 of test agent dilution/FI590 of untreated control)×100 and the LD50 are calculated.
Cells were collected by aphaeresis from a breast cancer patient (ER+, PR−, HER2 (2+)) diagnosed with invasive lobular carcinoma and metastatic spread to bone, liver and the mediastinum. […] Cell growth/viability was assessed using Presto Blue®(Invitrogen). […] Fluorescence values use the excitation and emission peaks for resorufin. […]

SMILES	pIC50 (Homo sapiens, low attachment 96-well plate, read-out: IC50 of inhibition of cell growth)	effect on cell growth (increasing concentrations)
COc1cccc2c1C(=O)c1c(O)c3c(c(O)c1C2=O)C[C@@](O)(C(=O)CO)C[C@@H]3O[C@H]1C[C@H](N)[C@@H](O)[C@H](C)O1 [epirubicin]	~6.00	
CC(=O)O[C@H]1C(=O)[C@@]2(C)[C@H]([C@H](OC(=O)c3ccccc3)[C@]3(O)C[C@H](OC(=O)[C@H](O)[C@@H](NC(=O)c4ccccc4)c4ccccc4)C(C)=C1C3(C)C)[C@]1(OC(C)=O)CO[C@@H]1C[C@@H]2O [taxol, paclitaxel]		no effect
